From patent US8299048B2, “Hexahydrocyclopentyl[f]indazole sulfonamides and derivatives thereof as selective glucocorticoid receptor modulators” (Merck Sharp & Dohme Corp., priority 2008, dated 2012)
pKi: −log10 of the molar value.

Target: T1, glucocorticoid receptor (Homo sapiens, UniProt P04150)
T1 construct: endogenous in cells
T1 sequence (P04150 1-777): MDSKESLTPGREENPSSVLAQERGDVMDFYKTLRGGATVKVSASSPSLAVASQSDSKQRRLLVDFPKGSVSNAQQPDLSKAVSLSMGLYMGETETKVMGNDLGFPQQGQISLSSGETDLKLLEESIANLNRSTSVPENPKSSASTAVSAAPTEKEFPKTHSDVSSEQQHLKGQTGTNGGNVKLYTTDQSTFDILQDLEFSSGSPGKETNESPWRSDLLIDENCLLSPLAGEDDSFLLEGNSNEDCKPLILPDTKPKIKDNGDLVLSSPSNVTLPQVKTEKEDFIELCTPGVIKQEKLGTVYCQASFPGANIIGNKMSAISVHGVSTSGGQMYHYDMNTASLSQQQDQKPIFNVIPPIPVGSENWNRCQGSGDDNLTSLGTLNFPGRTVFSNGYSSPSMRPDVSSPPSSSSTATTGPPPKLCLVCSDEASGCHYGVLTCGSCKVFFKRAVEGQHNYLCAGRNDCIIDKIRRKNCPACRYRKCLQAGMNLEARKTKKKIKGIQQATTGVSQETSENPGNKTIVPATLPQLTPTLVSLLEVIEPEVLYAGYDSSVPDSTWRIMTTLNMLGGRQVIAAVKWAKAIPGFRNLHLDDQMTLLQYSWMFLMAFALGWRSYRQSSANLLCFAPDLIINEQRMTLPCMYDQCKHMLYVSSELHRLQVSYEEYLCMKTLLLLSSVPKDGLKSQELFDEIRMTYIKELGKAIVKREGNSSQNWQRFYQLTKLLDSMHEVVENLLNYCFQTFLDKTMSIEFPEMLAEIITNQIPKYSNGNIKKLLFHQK
Assay: Ligand binding assay (GR BIND)
Description: • Materials: • Binding Buffer: TEGM (10 mM Tris-HCl, 1 mM EDTA, 10% glycerol, 1 mM beta-mecaptoethanol, 10 mM Sodium Molybdate, pH 7.2) • 50% HAP Slurry: Calbiochem Hydroxylapatite, Fast Flow, in 10 mM Tris, pH 8.0 and 1 mM EDTA. • Wash Buffer: 40 mM Tris, pH7.5, 100 mM KCl, 1 mM EDTA and 1 mM EGTA.
Phenol red-free Trypsin-EDTA is diluted in the same PBS1:10. The cell layers are rinsed with 1× Trypsin, extra Trypsin is poured out, and the cell layers are incubated at 37° C. for ˜2 min. The flask is tapped and checked for signs of cell detachment. Once the cells begin to slide off the flask, the complete media is added. The cells are counted at this point, then diluted to the appropriate concentration and split into flasks or dishes for further culturing (Usually 1:3 to 1:6 dilution).
When the cells are 70 to 85% confluent, they are detached as described above, and collected by centrifuging at 1000 g for 10 minutes at 4° C. The cell pellet is washed twice with TEGM (10 mM Tris-HCl, 1 mM EDTA, 10% glycerol, 1 mM beta-mercaptoethanol, 10 mM Sodium Molybdate, pH 7.2). After the final wash, the cells are resuspended in TEGM at a concentration of 10^7 cells/mL. The cell suspension is snap frozen in liquid nitrogen or ethanol/dry ice bath and transferred to −80° C. freezer on dry ice. Before setting up the binding assay, the frozen samples are left on ice-water to just thaw (˜1 hr). Then the samples are centrifuged at 12,500 g to 20,000 g for 30 min at 4° C. The supernatant is used to set-up assay right away. If using 50 μL of supernatant, the test compound can be prepared in 50 μL of the TEGM buffer.
1×TEGM buffer is prepared, and the isotope-containing assay mixture is prepared in the following order: EtOH (2% final concentration in reaction), 3H-DEX (Amersham Biosciences) and 1×TEGM. [e.g. For 100 samples, 200 μL (100×2) of EtOH+4.25 μL of 1:10 ^3H—Dex stock+2300 μL (100×23) 1×TEGM]. The compound is serially diluted, e.g., if starting final conc. is 1 μM, and the compound is in 25 μL of solution, for duplicate samples, 75 μL of 4×1 μM solution is made and 3 μL of 100 μM is added to 72 μL of buffer, and 1:5 serial dilution.
25 μL of ^3H-DEX (6 nM) trace and 25 μL compound solution are first mixed together, followed by addition of 50 μL receptor solution. The reaction is gently mixed, spun briefly at about 200 rpm and incubated at 4° C. overnight. 100 μL of 50% HAP slurry is prepared and added to the incubated reaction which is then vortexed and incubated on ice for 5 to 10 minutes. The reaction mixture is vortexed twice more to resuspend HAP while incubating reaction. The samples in 96-well format are then washed in wash buffer using The FilterMate™ Universal Harvester plate washer (Packard). The washing process transfers HAP pellet containing ligand-bound expressed receptor to Unifilter-96 GF/B filter plate (Packard). The HAP pellet on the filter plate is incubated with 50 μL of MICROSCINT (Packard) scintillint for 30 minutes before being counted on the TopCount microscintillation counter (Packard). […] are calculated using DEX as a reference.

| Compound | pKi |
| --- | --- |
| C[C@]12Cc3cnn(-c4ccc(F)cc4)c3C=C1CC[C@@H]2CN(CCc1ccccc1F)S(=O)(=O)Cc1ccccc1C(F)(F)F [Example 108, N-[2-(2-fluorophenyl)ethyl]-N-{[(4αR,5S)-1-(4-fluorophenyl)-4α-methyl-1,4,4α,5,6,7-hexahydrocyclopenta[f]indazol-5-yl]methyl}-1-[2-(trifluoromethyl)phenyl]methanesulfonamide] | 8.64 |
| C[C@]12Cc3cnn(-c4ccc(F)cc4)c3C=C1CC[C@@H]2CN(CCc1ccccn1)S(=O)(=O)CCN1C(=O)c2ccccc2C1=O [Example 152, 2-(1,3-dioxo-1,3-dihydro-2H-isoindol-2-yl)-N-{[(4αR,5S)-1-(4-fluorophenyl)-4α-methyl-1,4,4α,5,6,7-hexahydrocyclopenta[f]indazol-5-yl]methyl}-N-(2-pyridin-2-ylethyl)ethanesulfonamide] | 8.80 |
| C[C@]12Cc3cnn(-c4ccc(F)cc4)c3C=C1CC[C@@H]2CN(CC(O)c1ccncc1)S(=O)(=O)CC(F)(F)F (stereo partly drawn) [Example 144, 2,2,2-trifluoro-N-{[(4αR,5S)-1-(4-fluorophenyl)-4α-methyl-1,4,4α,5,6,7-hexahydrocyclopenta[f]indazol-5-yl]methyl}-N-(2-hydroxy-2-pyridin-4-ylethyl)ethanesulfonamide] | 9.05 |
| COc1ccccc1CCN(C[C@H]1CCC2=Cc3c(cnn3-c3ccc(F)cc3)C[C@@]21C)S(=O)(=O)CC(F)(F)F [Example 120, 2,2,2-trifluoro-N-{[(4αR,5S)-1-(4-fluorophenyl)-4α-methyl-1,4,4α,5,6,7-hexahydrocyclopenta[f]indazol-5-yl]methyl}-N-[2-(2-methoxyphenyl)ethyl]ethanesulfonamide] | 8.89 |
| C[C@]12Cc3cnn(-c4ccc(F)cc4)c3C=C1CC[C@@H]2CN(CCc1ccccc1F)S(=O)(=O)CCN1C(=O)c2ccccc2C1=O [Example 121, 2-(1,3-dioxo-1,3-dihydro-2H-isoindol-2-yl)-N-[2-(2-fluorophenyl)ethyl]-N-{[(4αR,5S)-1-(4-fluorophenyl)-4α-methyl-1,4,4α,5,6,7-hexahydrocyclopenta[f]indazol-5-yl]methyl}ethanesulfonamide] | 8.28 |
| C[C@]12Cc3cnn(-c4ccc(F)cc4)c3C=C1CC[C@@H]2CN(CCc1ccccn1)S(=O)(=O)Cc1ccccn1 [Example 165, N-{[(4αR,5S)-1-(4-fluorophenyl)-4α-methyl-1,4,4α,5,6,7-hexahydrocyclopenta[f]indazol-5-yl]methyl}-1-pyridin-2-yl-N-(2-pyridin-2-ylethyl)methanesulfonamide] | 8.80 |
| COc1ccccc1CCN(C[C@H]1CCC2=Cc3c(cnn3-c3ccc(F)cc3)C[C@@]21C)S(=O)(=O)Cc1cccnc1 [Example 125, N-{[(4αR,5S)-1-(4-fluorophenyl)-4α-methyl-1,4,4α,5,6,7-hexahydrocyclopenta[f]indazol-5-yl]methyl}-N-[2-(2-methoxyphenyl)ethyl]-1-pyridin-3-ylmethanesulfonamide] | 9.00 |
| C[C@]12Cc3cnn(-c4ccccc4)c3C=C1CC[C@@H]2CN(CCc1ccccc1F)S(=O)(=O)CC(F)(F)F [Example 137, 2,2,2-trifluoro-N-[2-(2-fluorophenyl)ethyl]-N-{[(4αR,5S)-4α-methyl-1-phenyl-1,4,4α,5,6,7-hexahydrocyclopenta[f]indazol-5-yl]methyl}ethanesulfonamide] | 9.05 |
| C[C@]12Cc3cnn(-c4ccc(F)cc4)c3C=C1CC[C@@H]2CN(CCc1ccccc1F)S(=O)(=O)Cc1cccc(Cl)c1 [Example 106, 1-(3-chlorophenyl)-N-[2-(2-fluorophenyl)ethyl]-N-{[(4αR,5S)-1-(4-fluorophenyl)-4α-methyl-1,4,4α,5,6,7-hexahydrocyclopenta[f]indazol-5-yl]methyl}methanesulfonamide] | 8.77 |
| CCCCCc1ccc(S(=O)(=O)N(CC2CC2)C[C@H]2CCC3=Cc4c(cnn4-c4ccc(F)cc4)C[C@@]32C)cc1 [Example 9, N-(cyclopropylmethyl)-N-{[(4αR,5S)-1-(4-fluorophenyl)-4α-methyl-1,4,4α,5,6,7-hexahydrocyclopenta[f]indazol-5-yl]methyl}-4-pentylbenzenesulfonamide] | 8.66 |
| CC(CN(C[C@H]1CCC2=Cc3c(cnn3-c3ccc(F)cc3)C[C@@]21C)S(=O)(=O)CC(F)(F)F)c1cccnc1 (stereo partly drawn) [Example 146, 2,2,2-trifluoro-N-{[(4αR,5S)-1-(4-fluorophenyl)-4α-methyl-1,4,4α,5,6,7-hexahydrocyclopenta[f]indazol-5-yl]methyl}-N-(2-pyridin-3-ylpropyl)ethanesulfonamide] | 9.10 |

The next lines start with the values.

| pKi | Compound |
| --- | --- |
| 9.05 | Cc1noc(C)c1S(=O)(=O)N(CCc1ccccc1O)C[C@H]1CCC2=Cc3c(cnn3-c3ccc(F)cc3)C[C@@]21C [Example 123, N-{[(4αR,5S)-1-(4-fluorophenyl)-4α-methyl-1,4,4α,5,6,7-hexahydrocyclopenta[f]indazol-5-yl]methyl}-N-[2-(2-hydroxyphenyl)ethyl]-3,5-dimethylisoxazole-4-sulfonamide] |
| 8.38 | C[C@]12Cc3cnn(-c4ccc(F)cc4)c3C=C1CC[C@@H]2CN(CC=O)S(=O)(=O)c1ccccc1F [Example 158, 2-fluoro-N-{[(4αR,5S)-1-(4-fluorophenyl)-4α-methyl-1,4,4α,5,6,7-hexahydrocyclopenta[f]indazol-5-yl]methyl}-N-(2-oxoethyl)benzenesulfonamide] |
| 8.32 | Cc1noc(C)c1S(=O)(=O)NC[C@H]1CCC2=Cc3c(cnn3-c3ccc(F)cc3)C[C@@]21C [Example 161, N-{[(4αR,5S)-1-(4-fluorophenyl)-4α-methyl-1,4,4α,5,6,7-hexahydrocyclopenta[f]indazol-5-yl]methyl}-3,5-dimethylisoxazole-4-sulfonamide] |
| 9.40 | Cc1nn(C)c(Cl)c1S(=O)(=O)N(CC1CC1)C[C@H]1CCC2=Cc3c(cnn3-c3ccc(F)cc3)C[C@@]21C [Example 7] |
| 9.15 | Cc1noc(C)c1S(=O)(=O)N(CC1CC1)C[C@H]1CCC2=Cc3c(cnn3-c3ccc(F)cc3)C[C@@]21C [Example 11, N-(cyclopropylmethyl)-N-{[(4αR,5S)-1-(4-fluorophenyl)-4α-methyl-1,4,4α,5,6,7-hexahydrocyclopenta[f]indazol-5-yl]methyl}-3,5-dimethylisoxazole-4-sulfonamide] |
| 8.82 | Cc1noc(C)c1S(=O)(=O)N(C[C@H]1CCC2=Cc3c(cnn3-c3ccc(F)cc3)C[C@@]21C)C[C@@H](C)O [Example 168, N-{[(4αR,5S)-1-(4-fluorophenyl)-4α-methyl-1,4,4α,5,6,7-hexahydrocyclopenta[f]indazol-5-yl]methyl}-N-[(2R)-2-hydroxypropyl]-3,5-dimethylisoxazole-4-sulfonamide] |
